The test system of data set [1] is brain nerve cells (hippocampal ventral dentate gyrus). Particulars: adult rat, cited from earlier work.
Data set [2] is described as follows: change of crystalline X-form raw material in pulverization, grinding, tabletting detected by DSC. The data set is classed as physicochemical. From the text:
Change of the crystalline X-form raw material in pulverization, grinding, and tabletting (at a pressure of 10 kg) was detected by DSC (see FIGS. 1-4).

The nature of data set [3]: solubility of crystalline X-form agomelatine in solvents. It is filed as physicochemical.
Data set [4] can be described thus: stability in the process (DSC crystal form purity, HPLC relevant substances). It is filed as physicochemical. To be noted: during formulation process. From the text: (§1) Referring to the aforementioned test 6, tablets were manufactured according to formulation and process with hydroxyproplyl methyl cellulose and polyvinylpyrrolindone k30 in a concentration of 15% as a protective agent.
Crystal form purity of the tablets was detected using DSC method with crystal forms and relevant substances as evaluation indexes. Regarding detection of relevant substances, HPLC method was adopted using imported drug as a standard.

Data set [5] in a line: test on influencing factors. The data set is classed as physicochemical. The method, then: as §1
We investigated in combination with formulations of the present invention: the samples were allowed to stand in an open state for 30 days under the conditions of a high temperature of 60° C., a high humidity of RH 92%, and both high temperature and high humidity (40° C., RH75%), respectively. The results are as follows: Test results on influencing factors (%)

SMILES strings stand for the structures. Where two headings read alike, the source gives them in different places.

In the case of `COc1ccc2cccc(CCNC(C)=O)c2c1` [Agomelatine, agomelatine], the “cell proliferation and neuronal regeneration in hippocampal ventral dentate gyrus” value is “no similar situation occurred” in data set [1] (acute or subacute administration (4 hours or nine weeks)); “could increase cell proliferation and neuronal regeneration” in data set [1] (long-term (three weeks) administration).

`COc1ccc2cccc(CCNC(C)=O)c2c1` [agomelatine]: the “X-form crystal purity (%) detected by DSC” value is 75.1% in data set [2] (after grinding), 79.4% in data set [2] (after pulverization), 57.7% in data set [2] (after tabletting (pressure of 10 kg)) and 100% in data set [2] (untreated crystalline X-form). Also, the solubility result is “very soluble” in data set [3] (in methanol, ethanol, acetonitrile, DMSO, etc.) and “almost insoluble” in data set [3] (in water). This compound had a Crystal form purity in data set [4] (DSC) of 100. This compound registered a Relevant substances in data set [4] (HPLC) of 0.42%. The “Crystal form purity %” value is listed as 100% in data set [5] (0 day); 85% in data set [5] (10 days at a high humidity (RH 92%), open state); 68% in data set [5] (10 days at a high temperature (60° C.), open state); 57% in data set [5] (10 days at both high temperature and high humidity (40° C., RH75%), open state).

These data come from patent US20160120825A1 (TIANJIN TAIPU PHARMACEUTICAL SCIENCE & TECHNOLOGY …, priority 2013, published 2016).
